The values that follow are results of earlier work, collected in patent publication CN104013603A, “一种烟碱缓释贴剂” (Shanghai Tobacco Group Co Ltd, priority 2014, dated 2014).

Each structure is given as a SMILES string.

For data set [1] the following is noted: background statement.
For data set [2] the following is noted: background statement. This is another data set of the same source.

Turning to `CN1CCC[C@H]1c1cccnc1` [尼古丁, (S)-3-(1-Methyl-2-pyrroli-dinyl)pyridine], the solubility result in data set [1] is “可溶于水、乙醇、氯仿、乙醚、油类”. For the same compound, in data set [2], the penetration into skin result is on record as “可渗入皮肤”.
